Reference: patent US20100173912A1, “Novel Compound” (priority 2007, published 2010)

Biological target: T1, human mGluR5b (Homo sapiens, UniProt P41594)
T1 construct: expressed in transfected cells; host or cells: CHO cells, pSwitch vector (Invitrogen), expression induced with mifepristone
Assay: FLIPR positive modulator assay in CHO cells expressing human mGluR5b
Assay type: cell-based
Conditions: FLIPR second read after EC20 glutamate, normalised to EC20 (basal) and EC100 (total) glutamate response, read-out: pEC50 in the human mGluR5b positive modulator assay (converted)
Protocol: CHO cells expressing human mGluR5b (pSwitch vector, Invitrogen) were maintained in DMEM media with 10% Foetal Calf Serum, 0.005% Hygromycin, Proline(10 mg/mL), Zeocin(0.005%). The media was replaced between subculturing days to remove any excess glutamate build up that may cause receptor desensitization. 24 hrs prior to conducting the assay, cells were plated in 384-well black flat clear bottom plates and mGluR5 expression was induced with the addition of 0.01 nM mifepristone. The plates were incubated at 37° C. to give a monolayer with a confluency of 80%.
The tissue culture medium was aspirated using a Tecan power washer. Cells were loaded with 30 μl of Hanks Balanced Salts (HBSS)+[…]+2 μM Fluo-4+250 μM Brilliant Black+0.01% Pluronic acid. The cells were incubated at 37° C. for 2 hours to allow uptake of the dye Fluo-4AM into the cell cytosol, which was converted to Fluo-4 by natural esterases cleaving the AM region preventing the Fluo-4 leaving the cell. […]
A 0.38 M solution of glutamic acid was prepared in water. […] A fluorescent reading was made. […] A second fluorescent read was made. […]
The compound was added ‘on line’ to the cells and a first FLIPR read was made to estimate agonism. The cell plates were then incubated at 37° C. for 5-10 min after which the chosen EC20 Glutamate was added ‘on line’ and a second FLIPR reading made to estimate modulation. […]

T1 sequence (P41594 21-1212): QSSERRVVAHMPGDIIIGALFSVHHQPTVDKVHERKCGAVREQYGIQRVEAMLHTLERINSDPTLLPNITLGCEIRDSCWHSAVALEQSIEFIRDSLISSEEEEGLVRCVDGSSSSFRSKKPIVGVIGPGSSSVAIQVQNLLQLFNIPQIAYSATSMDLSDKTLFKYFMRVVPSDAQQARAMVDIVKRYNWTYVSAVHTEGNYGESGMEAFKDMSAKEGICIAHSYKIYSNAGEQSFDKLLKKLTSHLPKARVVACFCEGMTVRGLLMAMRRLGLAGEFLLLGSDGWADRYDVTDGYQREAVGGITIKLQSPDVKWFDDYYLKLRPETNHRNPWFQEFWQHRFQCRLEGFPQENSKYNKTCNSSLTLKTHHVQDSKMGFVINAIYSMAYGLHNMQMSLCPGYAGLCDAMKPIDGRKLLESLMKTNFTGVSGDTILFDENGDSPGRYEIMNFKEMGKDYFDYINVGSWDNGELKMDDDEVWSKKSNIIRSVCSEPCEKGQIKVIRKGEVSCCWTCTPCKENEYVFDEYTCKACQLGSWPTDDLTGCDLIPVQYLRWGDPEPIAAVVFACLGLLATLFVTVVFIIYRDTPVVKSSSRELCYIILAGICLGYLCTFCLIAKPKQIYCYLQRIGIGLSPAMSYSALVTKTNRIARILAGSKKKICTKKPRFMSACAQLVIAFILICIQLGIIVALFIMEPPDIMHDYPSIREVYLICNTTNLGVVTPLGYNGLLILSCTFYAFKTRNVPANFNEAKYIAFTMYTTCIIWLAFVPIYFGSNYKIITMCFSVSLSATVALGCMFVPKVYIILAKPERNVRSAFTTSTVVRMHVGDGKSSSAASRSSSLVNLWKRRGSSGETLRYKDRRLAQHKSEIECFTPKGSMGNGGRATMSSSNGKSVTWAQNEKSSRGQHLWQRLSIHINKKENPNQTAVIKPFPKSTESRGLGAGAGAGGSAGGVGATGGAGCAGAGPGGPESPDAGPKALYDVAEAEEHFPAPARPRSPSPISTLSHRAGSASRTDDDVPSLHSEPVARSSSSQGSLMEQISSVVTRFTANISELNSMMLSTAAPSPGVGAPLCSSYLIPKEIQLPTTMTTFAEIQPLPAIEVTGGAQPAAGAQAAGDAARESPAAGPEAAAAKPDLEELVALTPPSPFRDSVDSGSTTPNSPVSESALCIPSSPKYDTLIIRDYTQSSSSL

EC50: < 1000 nM
Structure (SMILES): N#Cc1cc(F)ccc1N1CCN(C(=O)COCc2ccc(F)cc2)CC1 [5-fluoro-2-[4-({[(4-fluorophenyl)methyl]oxy}acetyl)-1-piperazinyl]benzonitrile]
